# Like-named read-outs stand apart in the source and are kept apart here.
# Assays:
# Format in all cases: cell-based
# Candida albicans = assay: Minimum inhibitory concentration (MIC100), CLSI M38-A2 broth dilution
# Protocol: Several strains of Aspergillus flavus, Aspergillus fumigatus, and Candida albicans were tested. Trichophyton rubrum MYA4498 and T. mentagrophytes MYA4439, the QC isolates approved by the Clinical and Laboratory Standards Institute (CLSI) for dermatophyte susceptibility testing, can also be tested.
# (§1) MIC testing was performed according to the CLSI M38A2 standard for the susceptibility testing of dermatophytes developed at the Center for Medical Mycology (See, Ghannoum et al., 2004, J Clin Microbial. 42(7): 2977-2979 CLSI, Reference Method for Broth Dilution Antifungal Susceptibility Testing of Filamentous Fungi: Approved Standard-Second Edition. CLSI document M38-A2 [ISBN 1-56238-668-9]. CLSI, 940 West Valley Road, Suite 1400, Wayne, Pa. 19087-1898 USA, 2008). Briefly, RPMI was the test medium, incubation temperature and time was 35° C. and 24 hours or 48 hours, respectively, and the inoculum size was 1-3×10^3 conidia/ml. The MIC endpoint was 100% inhibition as compared to the growth control.
# The MIC range, MIC100 (defined as the minimum concentration required to inhibit 100% of the isolates tested), for the antifungal preparations of the invention and comparators was computed. The MFC range, MFC50, MFC90, and MFC100 for the antifungal preparations of the invention and comparators can also be computed.
# Similarly, the lowest concentration (μg/mL) of a fluconazole formulation of the invention was compared to flucanozole alone that is required to inhibit 100% growth of various isolates of Candida albicans (MIC100) was determined (see Table 14). In this example, the fluconazole formulation of the invention comprises fluconazole formulated with a phosopholipid and a surfactant.
# Aspergillus flavus = assay: MIC100 of voriconazole and terbinafine formulation individually and in combination, FICI; settings: for MIC100, Combination: concentration of the agent when voriconazole and terbinafine formulation are used in combination; for MIC: Aspergillus flavus, agent used individually, read-out: MIC100, Individual
# Protocol: as §1
# (§2) The lowest concentration (μg/mL) of either a terbinafine formulation of the invention or voriconazole, when used in combination, that is required to inhibit 100% of various isolates of Aspergillus flavus and Aspergillus fumigatus (MIC100) was determined (see Table 15). In this example, the terbinafine formulation of the invention comprises terbinafine formulated with a phospholipid and a surfactant.
# (§3) Depicted in Table 15, the Fractional Inhibitory […] Index (FWD measures the degree of interaction between the two antifungal agents. A FICI value of greater than 4 indicates an antagonistic interaction; a FICI value of between 0.5 and 4 indicates no interaction; and a FICI value of less than 0.5 indicates a synergistic interaction. As depicted in Table 15, a lower concentration of either voriconazole or terbinafine formulation is generally able to inhibit 100% growth of various isolates of Aspergillus fumigatus and Aspergillus flavus when both antifungal agents are used in combination than the concentration required to inhibit 100% growth of various isolates of Aspergillus fumigatus and Aspergillus flavus when either voriconazole or terbinafine formulation is used individually.
# Aspergillus fumigatus = assay: as above; settings: for MIC100, Combination: concentration of the agent when voriconazole and terbinafine formulation are used in combination; for MIC: Aspergillus fumigatus, agent used individually, read-out: MIC100, Individual
# Protocol: as §1, §2, §3
# [1] = A. fumigatus strain MRL No. 2456
# [2] = A. fumigatus strain MRL No. 2471
# [3] = A. fumigatus strain MRL No. 2574
# [4] = A. fumigatus strain MRL No. 16627
# [5] = A. fumigatus strain MRL No. 16629
smiles,measurement,setting,value
"OC(Cn1cncn1)(Cn1cncn1)c1ccc(F)cc1F [Flucanozole, fluconazole]",MIC,Candida albicans; C. albicans strain MRL No. 648,> 64 µg/mL
same,MIC,Candida albicans; C. albicans strain MRL No. 9650,> 128 µg/mL
same,MIC,Candida albicans; C. albicans strain MRL No. 9698,32 µg/mL
same,MIC,Candida albicans; C. albicans strain MRL No. 14461,0.25 µg/mL
same,MIC,Candida albicans; C. albicans strain MRL No. 14465,0.25 µg/mL
"C[C@@H](c1ncncc1F)[C@](O)(Cn1cncn1)c1ccc(F)cc1F [Voriconazole, voriconazole]","MIC100, Combination",Aspergillus flavus; A. flavus strain MRL No. 17842,0.12 µg/mL
same,"MIC100, Combination",Aspergillus flavus; A. flavus strain MRL No. 18736,0.12 µg/mL
same,"MIC100, Combination",Aspergillus flavus; A. flavus strain MRL No. 18743,0.12 µg/mL
same,"MIC100, Combination",Aspergillus flavus; A. flavus strain MRL No. 18744,0.03 µg/mL
same,MIC,Aspergillus flavus; A. flavus strain MRL No. 17842,0.25 µg/mL
same,MIC,Aspergillus flavus; A. flavus strain MRL No. 18736,0.5 µg/mL
same,MIC,Aspergillus flavus; A. flavus strain MRL No. 18743,0.5 µg/mL
same,MIC,Aspergillus flavus; A. flavus strain MRL No. 18744,0.8 µg/mL
same,"MIC100, Combination",Aspergillus fumigatus; [1],0.06 µg/mL
same,"MIC100, Combination",Aspergillus fumigatus; [2],0.06 µg/mL
same,"MIC100, Combination",Aspergillus fumigatus; [3],0.06 µg/mL
same,"MIC100, Combination",Aspergillus fumigatus; [4],0.03 µg/mL
same,"MIC100, Combination",Aspergillus fumigatus; [5],0.03 µg/mL
same,MIC,Aspergillus fumigatus; [1],0.12 µg/mL
same,MIC,Aspergillus fumigatus; [2],0.25 µg/mL
same,MIC,Aspergillus fumigatus; [3],0.25 µg/mL
same,MIC,Aspergillus fumigatus; [4],0.5 µg/mL
same,MIC,Aspergillus fumigatus; [5],0.12 µg/mL
